Measured values taken from patent US20050245533A1, “Inhibitors of the 11-beta-hydroxysteroid dehydrogenaseType 1 enzyme and their therapeutic application” (priority 2004, published 2005).

How the values were obtained:
human 11-β-HSD-2 = molecular target: T1, human 11-β-HSD-2 (Homo sapiens, UniProt P80365); experiment: 11β-HSD-2 Scintillation Proximity Assay (tritiated cortisol, NAD+); assay type: biochemical; settings: human enzyme, SPA
T1 sequence (P80365 1-405): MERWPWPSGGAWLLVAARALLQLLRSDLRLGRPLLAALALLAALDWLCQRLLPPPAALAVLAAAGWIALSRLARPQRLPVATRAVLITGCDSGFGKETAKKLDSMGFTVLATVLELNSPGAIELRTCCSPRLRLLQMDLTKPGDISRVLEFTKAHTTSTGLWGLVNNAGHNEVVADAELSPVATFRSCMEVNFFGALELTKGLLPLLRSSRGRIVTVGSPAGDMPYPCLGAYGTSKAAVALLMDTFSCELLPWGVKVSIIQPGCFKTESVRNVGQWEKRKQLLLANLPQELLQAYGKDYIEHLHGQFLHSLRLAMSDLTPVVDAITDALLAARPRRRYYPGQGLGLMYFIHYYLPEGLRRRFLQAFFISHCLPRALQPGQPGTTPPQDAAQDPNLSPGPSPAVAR

ob/ob mice = experiment: ob/ob mouse model of type 2 diabetes; assay type: in vivo; settings: three weeks
Method: Male B6.VLep^ob(−/−) (ob/ob) mice and their lean littermates (Jackson Laboratory, Bar Harbor, Me.) were group housed and allowed free access to food (Purina 5015) and water. Mice were 6-7 weeks old at the start of each study. On day 0, animals were weighed and postprandial glucose levels determined (Medisense Precision-X™ glucometer, Abbott Laboratories). […] Animals were weighed, and postprandial glucose measurements were taken weekly throughout the study. On the last day of the study, 16 hours post dose (unless otherwise noted) the mice were euthanized via CO2, and blood samples (EDTA) were taken by cardiac puncture and immediately placed on ice. Whole blood measurements for HbA1c were taken with hand held meters (A1c NOW, Metrika Inc., Sunnyvale Calif.). Blood samples were then spun and plasma was removed and frozen until further analysis. The plasma triglyceride levels were determined according to instructions by the manufacturer (Infinity kit, Sigma Diagnostics, St. Louis Mo.).

[1] = molecular target: T2, truncated human 11β-HSD-1 enzyme (24-287AA) (Homo sapiens, UniProt P28845); experiment: human 11β-HSD-1 enzymatic Scintillation Proximity Assay (SPA); assay type: biochemical
T2 construct: truncated human 11β-HSD-1 enzyme (24-287AA); made in house; host or cells: E. coli (lysate)
T2 sequence (P28845 24-287): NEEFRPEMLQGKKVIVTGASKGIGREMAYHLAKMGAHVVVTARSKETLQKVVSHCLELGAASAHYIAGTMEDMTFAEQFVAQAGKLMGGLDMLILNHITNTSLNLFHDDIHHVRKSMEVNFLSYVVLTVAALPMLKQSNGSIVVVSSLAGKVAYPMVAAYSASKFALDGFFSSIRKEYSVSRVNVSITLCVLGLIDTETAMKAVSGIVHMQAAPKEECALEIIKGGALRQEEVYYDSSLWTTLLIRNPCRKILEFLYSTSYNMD
Method: The ability of test compounds to inhibit human 11-βHSD-1 enzymatic activity in vitro was evaluated in a Scintillation Proximity Assay (SPA). Tritiated-cortisone substrate, NADPH cofactor and titrated compound were incubated with truncated human 11β-HSD-1 enzyme (24-287AA) at room temperature to allow the conversion to cortisol to occur. The reaction was stopped by adding a non-specific 11β-HSD inhibitor, 18β-glycyrrhetinic acid. The tritiated cortisol generated was then captured by a mixture of an anti-cortisol monoclonal antibody and SPA beads coated with anti-mouse antibodies. The reaction plate was shaken at room temperature and the radioactivity bound to SPA beads was then measured on a β-scintillation counter. The 11-βHSD-1 assay was carried out in 96-well microtiter plates in a total volume of 220 μl. To start the assay, 188 μl of master mix which contains 17.5 nM ^3H-cortisone, 157.5 nM cortisone, and […] NADPH was added to the wells. In order to drive the reaction in the forward direction, 1 mM G-6-P was also added. […] After shaking for 30 minutes, plates were read on a liquid scintillation counter Topcount. Percent inhibition was calculated based on the background and the maximal signal. […] Percent of inhibition of each compound was calculated relative to the maximal signal and IC50 curves were generated. […]

male CD-1 mice = experiment: Mouse dehydrocorticosterone challenge model; assay type: in vivo; settings: 100 mpk, followed by 11-DHC challenge, 30 min after challenge
Method: Male CD-1 (18-22 g) mice (Charles River, Madison, Wis.) were group housed and allowed free access to food and water. Mice are brought into a quiet procedure room for acclimation the night before the study. Animals are dosed with vehicle or compound at various times (pretreatment period) before being challenged with 11-dehydrocorticosterone (Steraloids Inc., Newport, R.I.). Thirty minutes after challenge, the mice are euthanized with CO2 and blood samples (EDTA) are obtained by cardiac puncture and immediately placed on ice. Blood samples were then spun, the plasma was removed, and the samples frozen until further analysis was performed. Corticosterone levels were obtained by ELISA (American Laboratory Prod., Co., Windham, N.H.) or HPLC/mass spectroscopy.

IC50 (human 11-β-HSD-2): > 10000 nM
IC50 [1]: 34 nM
SMILES: CC(C(=O)NC1C2CC3CC(C2)CC1C3)N1CCC(O)CC1 (stereo not shown) [Compound C, N-2-Adamantyl-2-(4-hydroxypiperidin-1-yl)propanamide]
% HbA1c (ob/ob mice; 30 mpk twice daily): 7.4 ± 0.7%
Plasma glucose (ob/ob mice; 30 mpk twice daily): 227 ± 17 mg/dL
Plasma triglycerides (ob/ob mice; 30 mpk twice daily): 288 ± 26 mg/dL
% HbA1c (ob/ob mice; 100 mpk twice daily): 5.7 ± 0.3%
Plasma glucose (ob/ob mice; 100 mpk twice daily): 186 ± 18 mg/dL
Plasma triglycerides (ob/ob mice; 100 mpk twice daily): 323 ± 34 mg/dL
Plasma corticosterone level (male CD-1 mice; pretreatment period 0.5 hours): 203 ± 19
Plasma corticosterone level (male CD-1 mice; pretreatment period 5 hours): 382 ± 40
